Data from patent US20170073337A1, “DIHYDROTHIAZINE AND DIHYDROOXAZINE DERIVATIVES HAVING BACE1 INHIBITORY ACTIVITY” (Shionogi & Co., Ltd., priority 2014, published 2017).
Values after ≈ are worked out from the molar mass of the structure shown. Read-outs that look alike come from different tables or passages of the source.

What was measured:
Recombinant human BACE1 = target: T1, Recombinant human BACE1 (Homo sapiens, UniProt P56817); experiment: Assay of BACE1 inhibitory activity: 96-well; assay type: biochemical; conditions: Assay format 96-well
T1 construct: purchased R&D Systems
T1 sequence (P56817 46-501): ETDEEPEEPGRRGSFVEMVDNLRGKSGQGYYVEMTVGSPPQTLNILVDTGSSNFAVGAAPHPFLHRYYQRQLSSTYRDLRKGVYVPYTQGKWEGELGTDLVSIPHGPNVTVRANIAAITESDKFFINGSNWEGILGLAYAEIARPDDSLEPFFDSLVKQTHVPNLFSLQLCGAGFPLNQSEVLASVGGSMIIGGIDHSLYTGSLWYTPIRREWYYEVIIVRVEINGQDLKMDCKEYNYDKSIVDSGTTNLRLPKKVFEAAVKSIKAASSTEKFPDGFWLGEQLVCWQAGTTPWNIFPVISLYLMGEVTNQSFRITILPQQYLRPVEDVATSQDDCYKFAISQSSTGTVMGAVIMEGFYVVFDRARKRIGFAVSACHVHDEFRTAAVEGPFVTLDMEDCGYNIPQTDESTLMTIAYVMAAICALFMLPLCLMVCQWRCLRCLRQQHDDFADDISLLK
Protocol: 48.5 μL of substrate peptide solution (Biotin-XSEVNLDAEFRHDSGC-Eu: X=ε-amino-n-capronic acid. Eu=Europium cryplate) was added to each well of 96-hole half-area plate (a black plate: Costar), and after addition of 0.5 μl of the compound of the present invention (DMSO solution) and 1 μl of Recombinant human BACE1(R&D Systems), the reaction mixture was incubated at 30° C. for 3.5 hours. The substrate peptide was synthesized by reacting Cryptate TBPCOOH mono SMP (CIS bio international) with Biotin-XSEVNLDAEFRHDSGC (Peptide Institute, Inc.).
After the incubation for reaction, 50 μl of 8.0 μg/ml Streptavidin-XL665 (CIS bio international) dissolved in phosphate buffer (150 mmol/L […]—KH2PO4, pH 7.0, 0.008% Triton X-100, 0.8 mol/L KF) was added to each well and left stand at 30° C. for 45 minutes.

[1] = system: Aβ production in neuroblastoma SH-SY5Y cells (SH/APPwt); experiment: β-amyloid (Aβ) production inhibitory effect in cell: 96-well; assay type: cell-based; conditions: Homo sapiens, Assay format 96-well
Protocol: Neuroblastoma SH-SY5V cells (SH/APPwt) with human wild-type R-APP excessively expressed therein were prepared at 8×10^5 cells/mL, and 150 μl portions thereof were inoculated into each well of a 96-well culture plate (Falcon). The cells were cultured for 2 hours at […]. in a 5% gaseous carbon dioxide incubator. […] Namely, the final DMSO concentration was 1%, and the amount of the cell culture was 200 μl. After the incubation was performed for 24 hours from the addition of the test compound, 100 μl of the culture supernatant was collected from each fraction. The amount of the Aβ in each fraction was measured. The Aβ amount was measured as follows. 10 μl of a homogeneous time resolved fluorescence (HTRF) measurement reagent (Amyloid β1-40 peptide: CIS bio international) and 10 μof the culture supernatant were put into a 384-well half area microplate (black microplate, Costar) and mixed with each other, and then left standing overnight at 4° C. while the light was shielded.

CYP1A2 = target: T2, CYP1A2 (Homo sapiens, UniProt P05177); experiment: CYP inhibition test (CYP1A2); assay type: in vitro ADME; conditions: pooled human liver microsomes; 7-ethoxyresorufin O-deethylation
T2 construct: The commercially available pooled human liver microsomes are used as an enzyme resource; from tissue; host or cells: pooled human liver microsomes
T2 sequence (P05177 1-516): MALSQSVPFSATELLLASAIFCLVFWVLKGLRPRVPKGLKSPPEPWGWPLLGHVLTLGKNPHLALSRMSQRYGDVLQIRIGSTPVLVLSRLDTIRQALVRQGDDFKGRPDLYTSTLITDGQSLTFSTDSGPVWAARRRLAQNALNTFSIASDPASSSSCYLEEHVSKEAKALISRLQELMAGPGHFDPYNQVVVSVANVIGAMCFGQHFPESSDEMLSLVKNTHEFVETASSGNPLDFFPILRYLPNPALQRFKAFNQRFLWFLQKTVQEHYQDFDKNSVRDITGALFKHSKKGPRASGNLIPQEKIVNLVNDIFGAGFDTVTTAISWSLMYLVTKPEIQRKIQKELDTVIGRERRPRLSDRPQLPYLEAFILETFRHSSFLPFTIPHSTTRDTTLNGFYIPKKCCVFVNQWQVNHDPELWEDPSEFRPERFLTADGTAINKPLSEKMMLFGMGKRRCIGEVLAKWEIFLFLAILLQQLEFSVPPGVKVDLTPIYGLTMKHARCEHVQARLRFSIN
Summary of the method: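 Inhibition of CYP1A2 was measured in commercially available pooled human liver microsomes (0.2 mg protein/mL) using 7-ethoxyresorufin O-deethylation with 0.5 μmol/L ethoxyresorufin. Test compound at 1, 5, 10, 20 μmol/L in […] Hepes buffer was incubated at 37° C. after NADPH addition; methanol/acetonitrile=1/1 (v/v) stopped the reaction, and resorufin was read fluorescently.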

CYP2C9 = target: T3, CYP2C9 (Homo sapiens, UniProt P11712); experiment: CYP inhibition test (CYP2C9); assay type: in vitro ADME; conditions: pooled human liver microsomes; tolbutamide methyl-hydroxylation
T3 construct: The commercially available pooled human liver microsomes are used as an enzyme resource; from tissue; host or cells: pooled human liver microsomes
T3 sequence (P11712 whole entry): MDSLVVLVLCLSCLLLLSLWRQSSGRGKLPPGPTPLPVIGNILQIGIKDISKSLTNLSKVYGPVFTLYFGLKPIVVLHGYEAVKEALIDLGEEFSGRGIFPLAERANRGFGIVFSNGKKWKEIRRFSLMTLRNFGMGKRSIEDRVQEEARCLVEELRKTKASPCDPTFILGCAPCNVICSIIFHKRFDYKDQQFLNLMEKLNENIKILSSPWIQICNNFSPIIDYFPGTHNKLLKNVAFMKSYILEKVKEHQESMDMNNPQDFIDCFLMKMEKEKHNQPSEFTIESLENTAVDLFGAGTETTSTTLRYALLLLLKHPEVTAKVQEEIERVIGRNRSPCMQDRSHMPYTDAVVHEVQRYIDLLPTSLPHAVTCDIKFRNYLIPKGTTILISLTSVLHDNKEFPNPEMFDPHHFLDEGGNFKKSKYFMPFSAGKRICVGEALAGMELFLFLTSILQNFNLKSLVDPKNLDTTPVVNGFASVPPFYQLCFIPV
Summary of the method: (§1)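 Metabolite formation was quantified by LC/MS/MS: dextrorphan (2D6, 5 μmol/L dextromethorphan), terfenadine alcohol (3A4, 1 μmol/L terfenadine), 4′-hydroxymephenytoin (2C19, 50 μmol/L S-mephenytoin) and hydroxytolbutamide (2C9, 100 μmol/L tolbutamide). Reactions used NADPH-started pooled human liver microsomes (0.2 mg/mL) at 37 °C with compound at 1–20 μmol/L (four points). IC50 was calculated by logistic model relative to the DMSO control.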

CYP2C19 = target: T4, CYP2C19 (Homo sapiens, UniProt P33261); experiment: CYP inhibition test (CYP2C19); assay type: in vitro ADME; conditions: pooled human liver microsomes; mephenytoin 4′-hydroxylation
T4 construct: The commercially available pooled human liver microsomes are used as an enzyme resource; from tissue; host or cells: pooled human liver microsomes
T4 sequence (P33261 whole entry): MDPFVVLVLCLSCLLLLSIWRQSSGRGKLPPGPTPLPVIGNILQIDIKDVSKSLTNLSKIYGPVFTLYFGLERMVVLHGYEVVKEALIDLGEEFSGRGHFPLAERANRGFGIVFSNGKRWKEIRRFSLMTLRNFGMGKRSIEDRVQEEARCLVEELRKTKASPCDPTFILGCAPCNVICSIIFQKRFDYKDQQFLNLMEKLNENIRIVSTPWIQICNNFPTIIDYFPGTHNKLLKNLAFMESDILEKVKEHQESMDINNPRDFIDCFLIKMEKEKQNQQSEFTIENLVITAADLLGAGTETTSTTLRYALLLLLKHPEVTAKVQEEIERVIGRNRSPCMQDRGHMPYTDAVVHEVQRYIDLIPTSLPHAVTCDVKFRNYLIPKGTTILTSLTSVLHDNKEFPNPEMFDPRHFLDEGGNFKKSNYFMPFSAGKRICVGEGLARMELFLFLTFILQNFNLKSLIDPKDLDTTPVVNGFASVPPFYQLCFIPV
Summary of the method: as §1

CYP3A4 = target: T5, CYP3A4 (Homo sapiens, UniProt P08684); experiment: CYP inhibition test (CYP3A4); assay type: in vitro ADME; conditions: pooled human liver microsomes; terfenadine hydroxylation
T5 construct: The commercially available pooled human liver microsomes are used as an enzyme resource; from tissue; host or cells: pooled human liver microsomes
T5 sequence (P08684 whole entry): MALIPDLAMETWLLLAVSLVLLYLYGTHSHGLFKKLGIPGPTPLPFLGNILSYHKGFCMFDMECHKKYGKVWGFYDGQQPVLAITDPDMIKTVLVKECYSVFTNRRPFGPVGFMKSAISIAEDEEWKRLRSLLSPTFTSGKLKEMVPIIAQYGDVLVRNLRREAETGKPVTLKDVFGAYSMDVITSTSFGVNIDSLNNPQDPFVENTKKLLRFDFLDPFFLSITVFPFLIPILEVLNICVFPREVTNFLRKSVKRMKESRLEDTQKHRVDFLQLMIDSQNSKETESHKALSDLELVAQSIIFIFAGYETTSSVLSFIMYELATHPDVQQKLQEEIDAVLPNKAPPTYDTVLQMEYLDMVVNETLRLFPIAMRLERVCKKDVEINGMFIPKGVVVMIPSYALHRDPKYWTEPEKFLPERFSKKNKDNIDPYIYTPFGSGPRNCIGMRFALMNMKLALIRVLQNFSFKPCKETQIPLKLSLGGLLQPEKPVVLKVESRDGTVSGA
Summary of the method: as §1

Solubility test = assay type: physicochemical; conditions: kinetic from dmso stock; for solubility kinetic at 16 h: 25 °C
Summary of the method: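 Dissolved concentration determined by LC/MS or SPE/MS (absolute calibration) in diluted filtrates, after 2 μL of 10 mmol/L DMSO stock was added to 198 μL JP 1st or JP 2nd fluid and equilibrated either 1 h with shaking at room temperature or 16 h standing at 25 °C.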

[2] = target: T6, human ether-a-go-go related gene (hERG) channel (Homo sapiens, UniProt Q12809); experiment: hERG test; assay type: cell-based; conditions: % inhibition of IKr tail peak current at 3 uM; CHO cells expressing hERG
T6 construct: expressed in transfected cells; host or cells: CHO cells
T6 sequence (Q12809 whole entry): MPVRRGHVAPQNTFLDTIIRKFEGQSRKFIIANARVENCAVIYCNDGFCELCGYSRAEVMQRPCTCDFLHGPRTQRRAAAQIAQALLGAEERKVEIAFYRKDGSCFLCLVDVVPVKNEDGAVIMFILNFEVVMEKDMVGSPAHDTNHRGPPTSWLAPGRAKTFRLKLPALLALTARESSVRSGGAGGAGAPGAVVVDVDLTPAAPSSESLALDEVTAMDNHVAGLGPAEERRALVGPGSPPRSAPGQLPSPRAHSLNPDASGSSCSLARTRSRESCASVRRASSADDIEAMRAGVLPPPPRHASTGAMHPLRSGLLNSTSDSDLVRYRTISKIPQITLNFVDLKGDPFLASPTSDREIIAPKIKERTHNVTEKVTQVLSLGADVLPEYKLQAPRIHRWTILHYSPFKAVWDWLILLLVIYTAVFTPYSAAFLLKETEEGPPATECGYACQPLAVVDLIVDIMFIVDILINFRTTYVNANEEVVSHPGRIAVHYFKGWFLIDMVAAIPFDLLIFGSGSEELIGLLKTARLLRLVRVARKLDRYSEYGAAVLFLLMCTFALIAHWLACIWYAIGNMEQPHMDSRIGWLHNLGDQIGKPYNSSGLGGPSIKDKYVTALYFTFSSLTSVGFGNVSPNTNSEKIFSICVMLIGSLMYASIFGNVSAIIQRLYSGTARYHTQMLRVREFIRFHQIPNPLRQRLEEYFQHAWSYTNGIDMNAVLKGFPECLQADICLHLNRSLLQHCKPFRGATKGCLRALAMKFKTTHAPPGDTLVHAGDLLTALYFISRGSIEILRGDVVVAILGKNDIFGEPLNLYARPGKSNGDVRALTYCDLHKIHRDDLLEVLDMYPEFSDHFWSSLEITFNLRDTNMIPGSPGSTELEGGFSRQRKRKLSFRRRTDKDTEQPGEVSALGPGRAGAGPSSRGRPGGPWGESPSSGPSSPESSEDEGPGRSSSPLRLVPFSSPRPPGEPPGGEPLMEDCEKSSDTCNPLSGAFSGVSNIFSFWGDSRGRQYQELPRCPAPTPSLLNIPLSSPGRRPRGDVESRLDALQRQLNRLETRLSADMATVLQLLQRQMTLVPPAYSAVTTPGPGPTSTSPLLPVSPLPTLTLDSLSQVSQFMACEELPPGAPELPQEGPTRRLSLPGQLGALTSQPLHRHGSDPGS
Summary of the method: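 IKr was recorded from hERG-expressing CHO cells by automated whole-cell patch clamp at a holding potential of −80 mV. A −50 mV leak step was followed by a 2 s depolarization to +20 mV and a 2 s repolarization to −50 mV, when current was measured.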

CYP2D6 = target: T7, CYP2D6 (Homo sapiens, UniProt P10635); experiment: CYP inhibition test (CYP2D6); assay type: in vitro ADME; conditions: pooled human liver microsomes; dextromethorphan O-demethylation
T7 construct: The commercially available pooled human liver microsomes are used as an enzyme resource; from tissue; host or cells: pooled human liver microsomes
T7 sequence (P10635 whole entry): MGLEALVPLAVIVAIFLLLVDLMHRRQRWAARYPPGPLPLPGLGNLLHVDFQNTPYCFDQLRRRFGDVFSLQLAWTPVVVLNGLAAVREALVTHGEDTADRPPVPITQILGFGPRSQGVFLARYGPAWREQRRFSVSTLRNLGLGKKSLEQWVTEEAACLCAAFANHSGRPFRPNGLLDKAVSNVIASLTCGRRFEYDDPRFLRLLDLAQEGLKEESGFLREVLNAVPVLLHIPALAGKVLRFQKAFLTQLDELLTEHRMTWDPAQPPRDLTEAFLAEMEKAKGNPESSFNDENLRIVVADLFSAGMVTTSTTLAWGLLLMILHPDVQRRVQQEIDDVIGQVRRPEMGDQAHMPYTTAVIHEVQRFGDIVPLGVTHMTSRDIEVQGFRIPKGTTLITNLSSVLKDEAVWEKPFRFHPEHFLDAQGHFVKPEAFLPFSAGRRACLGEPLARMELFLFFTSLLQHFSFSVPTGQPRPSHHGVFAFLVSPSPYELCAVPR
Excerpt: The CYP inhibition test is a test to assess the inhibitory effect of a compound of the present invention towards typical substrate metabolism reactions on CYP enzymes in human liver microsomes. The marker reactions on human main five CYP enzymes (CYP1A2, 2C9, 2C19, 2D6, and 3A4) are used as follows: 7-ethoxyresorufin O-deethylation (CYP1A2), tolbutamide methyl-hydroxylation (CYP2C9), mephenytoin 4′-hydroxylation (CYP2C19), dextromethorphan O-demethylation (CYP2D6), and terfenadine hydroxylation (CYP3A4). The commercially available pooled human liver microsomes are used as an enzyme resource.
The reaction conditions were as follows: substrate, 0.5 μmol/L ethoxyresorufin (CYP1A2), 100 μmol/L tolbutamide (CYP2C9), 50 μmol/L, S-mephenytoin (CYP2C19), 5 μmol/L dextromethorphan (CYP2D6), 1 μmol/L terfenadine (CYP3A4): reaction time, 15 minutes: reaction temperature, 37° C.; enzyme, pooled human liver microsomes 0.2 mg protein/mL; concentrations of the compound of the present invention, 1, 5, 10, 20 μmol/L (four points).
Five kinds of substrates, human liver microsomes, and a compound solution of the present invention in […] Hepes buffer were added to a 96-well plate at the composition as described above as a reaction solution. NADPH as a cofactor was added to this 96-well plate in order to initiate metabolism reactions. After the incubation at 37° C.for […], a methanol/acetonitrile=1/1 (v/v) solution was added to stop the reaction. After the centrifugation at 3000 rpm for 15 minutes, resorufin (CYP1A2 metabolite) in the supernatant was quantified by a fluorescent plate reader, and hydroxytolbutamide (CYP2C9 metabolite), 4′-hydroxymephenytoin (CYP2C19 metabolite), dextrorphan (CYP2D6 metabolite), and terfenadine alcohol metabolite (CYP3A4 metabolite) in the supernatant were quantified by LC/MS/MS.
The sample adding DMSO to a reaction system instead of compound of the present invention solution was adopted as a control (100%) because DMSO was used as a solvent to dissolve a compound of the present invention. Remaining activity (%) was calculated at each concentration of a compound of the present invention, and IC50 value was calculated by reverse presumption by a logistic model using a concentration and an inhibition rate.

Metabolic stability test = assay type: in vitro ADME; conditions: human liver microsomes, 37° C., 30 minutes, NADPH
Summary of the method: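 Parent compound was measured by LC/MS/MS or SPE/MS after a methanol/acetonitrile quench and reported as % remaining, with the 0 min sample set to 100%. Incubations ran 30 min at 37 °C in pH 7.4 Tris buffer containing pooled human liver microsomes at 0.5 mg protein/mL and 1 mmol/L NADPH.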

[3] = JP 1st fluid, pH 1.2, simulated gastric fluid, read-out: JP1
[4] = JP 2nd fluid A, pH 6.8, aqueous buffer, read-out: JP2_μM

Structure (SMILES)	IC50 (Recombinant human BACE1) [µM]	IC50 [1] [µM]	IC50 (CYP1A2) [µM]	IC50 (CYP2C9) [µM]	IC50 (CYP2C19) [µM]	IC50 (CYP3A4) [µM]	solubility kinetic at 16 h (Solubility test; [3]) [µM]	solubility kinetic at 16 h (Solubility test; [4]) [µM]	IC50 (CYP2D6) [µM]	remaining % (Metabolic stability test) [%]	solubility kinetic at 1 h (Solubility test; [3]) [µM]	solubility kinetic at 1 h (Solubility test; [4]) [µM]	hERG_3 uM_% [2] [%]
CO[C@H]1[C@@H](CF)OC(N)=N[C@]1(C)c1cc(NC(=O)c2ncc(Cl)cc2Cl)ccc1Cl [Compound I-22]	0.023	0.00422	≥ 20	≥ 20	≥ 20	≥ 20	31.2 (≈ 14.8 µg/mL)	> 50	≥ 10	–	–	–	14.2
CO[C@H]1[C@@H](CF)OC(N)=N[C@]1(C)c1cc(NC(=O)c2ccc(Cl)cn2)ccc1F [Compound I-23]	0.0344	0.00153	≥ 20	≥ 20	≥ 20	≥ 20	46.7 (≈ 19.8 µg/mL)	> 50	≥ 20	86.6	–	–	–
CO[C@H]1[C@@H](C(F)(F)F)OC(N)=N[C@]1(C)c1cc(NC(=O)c2ccc(C#N)cn2)ccc1F [Compound I-34]	0.0165	0.00185	≥ 20	≥ 20	≥ 20	≥ 20	44.4 (≈ 20 µg/mL)	> 50	≥ 20	–	–	–	15.5
C[C@]1(c2cc(NC(=O)c3ccc(C#N)cn3)ccc2F)N=C(N)OCC12CC(F)(F)C2 [Compound I-43]	0.0218	0.000615	≥ 20	≥ 20	≥ 20	≥ 20	29.9 (≈ 12.8 µg/mL)	> 50	≥ 20	84.5	–	–	–

Now from value to molecule, other results behind:

IC50 (Recombinant human BACE1) [µM]	IC50 [1] [µM]	IC50 (CYP1A2) [µM]	IC50 (CYP2C9) [µM]	IC50 (CYP2C19) [µM]	IC50 (CYP3A4) [µM]	solubility kinetic at 16 h (Solubility test; [3]) [µM]	solubility kinetic at 16 h (Solubility test; [4]) [µM]	IC50 (CYP2D6) [µM]	remaining % (Metabolic stability test) [%]	solubility kinetic at 1 h (Solubility test; [3]) [µM]	solubility kinetic at 1 h (Solubility test; [4]) [µM]	Structure (SMILES)	hERG_3 uM_% [2] [%]
0.0299	0.00288	≥ 20	≥ 10	≥ 20	≥ 20	34.3 (≈ 15.2 µg/mL)	> 50	–	–	–	–	C[C@]1(c2nc(NC(=O)c3cnc(OCF)cn3)ccc2F)N=C(N)S[C@H](CF)[C@@H]1F [Compound I-5]	27.7
0.015	0.00129	≥ 20	–	≥ 10	≥ 20	–	–	–	–	–	–	C[C@]1(c2nc(NC(=O)c3ccc(Cl)cn3)ccc2F)N=C(N)S[C@H](CF)[C@@H]1F [Compound I-6]	–
–	0.00293	≥ 20	≥ 20	≥ 20	≥ 20	28.8 (≈ 12.7 µg/mL)	> 50	–	–	–	–	CO[C@H]1[C@@H](CF)OC(N)=N[C@]1(C)c1cc(NC(=O)c2ccc(Cl)cn2)ccc1Cl [Compound I-21]	51.1
0.0339	0.00176	–	≥ 20	≥ 20	≥ 20	41.9 (≈ 19.2 µg/mL)	> 50	≥ 20	76	–	–	CO[C@H]1[C@@H](CF)OC(N)=N[C@]1(C)c1cc(NC(=O)c2ncc(Cl)cc2Cl)ccc1F [Compound I-26]	29.6
0.022	0.00229	≥ 20	≥ 20	≥ 20	≥ 20	–	–	≥ 20	–	37.6 (≈ 16.4 µg/mL)	15.9 (≈ 6.95 µg/mL)	COc1cnc(C(=O)Nc2ccc(F)c([C@@]3(C)N=C(N)O[C@H]4[C@@H]3OCC4(F)F)c2)cn1 [Compound I-36]	29.9
